Source: patent publication US8569311B2, “Pyridyl piperidine orexin receptor antagonists” (Merch Sharp & Dohme Corp., priority 2007, dated 2013)
pKi: −log10 of the molar value.

Tests used:
OX1R = OX1R (Rattus norvegicus, UniProt P56718); assay: radioligand binding assay, OX1 receptor; settings: membranes prepared from CHO cells expressing the OX1 receptor
Method: (§1) The utility of the compounds in accordance with the present invention as orexin receptor OX1R and/or OX2R antagonists may be readily determined without undue experimentation by methodology well known in the art, including the “FLIPR Ca^2+ Flux Assay” (Okumura et al., Biochem. Biophys. Res. Comm 280:976-981, 2001). In a typical experiment the OX1 and OX2 receptor antagonistic activity of the compounds of the present invention was determined in accordance with the following experimental method. For intracellular calcium measurements, Chinese hamster ovary (CHO) cells expressing the rat orexin-1 receptor or the human orexin-2 receptor, are grown in Iscove's modified DMEM containing 2 mM L-glutamine, […], 1% hypoxanthine-thymidine supplement, 100 U/ml penicillin, 100 ug/ml streptomycin and 10% heat-inactivated fetal calf serum (FCS). The cells are seeded at 20,000 cells/well into Becton-Dickinson black 384-well clear bottom sterile plates coated with poly-D-lysine. All reagents were from GIBCO-Invitrogen Corp. The seeded plates are incubated overnight at 37° C. and 5% CO2. Ala-6,12 human orexin-A as the agonist is prepared as a 1 mM stock solution in 1% bovine serum albumin (BSA) and diluted in assay buffer (HBSS containing 20 mM HEPES, 0.1% BSA and 2.5 mM probenecid, pH7.4) for use in the assay at a final concentration of 70 pM. Test compounds are prepared as 10 mM stock solution in DMSO, then diluted in 384-well plates, first in DMSO, then assay buffer. On the day of the assay, cells are washed 3 times with 100 ul assay buffer and then incubated for 60 min (37° C., 5% CO2) in 60 ul assay buffer containing 1 uM Fluo-4AM ester, 0.02% pluronic acid, and 1% BSA. The dye loading solution is then aspirated and cells are washed 3 times with 100 ul assay buffer. 30 ul of that same buffer is left in each well. Within the Fluorescent Imaging Plate Reader (FLIPR, Molecular Devices), test compounds are added to the plate in a volume of 25 ul, incubated for 5 min and finally 25 ul of agonist is added. Fluorescence is measured for each well at 1 second intervals for 5 minutes and the height of each fluorescence peak is compared to the height of the fluorescence peak induced by 70 pM Ala-6,12 orexin-A with buffer in place of antagonist. For each antagonist, IC50 value (the concentration of compound needed to inhibit 50% of the agonist response) is determined. Alternatively, compound potency can be assessed by a radioligand binding assay (described in Bergman et. al. Bioorg. Med. Chem. Lett. 2008, 18, 1425-1430) in which the inhibition constant (Ki) is determined in membranes prepared from CHO cells expressing either the OX1 or OX2 receptor. The intrinsic orexin receptor antagonist activity of a compound which may be used in the present invention may be determined by these assays.

OX2R = OX2R (Homo sapiens (Human), UniProt O43614); assay: radioligand binding assay, OX2 receptor; settings: membranes prepared from CHO cells expressing the OX2 receptor
Chain of OX2R (O43614 whole entry): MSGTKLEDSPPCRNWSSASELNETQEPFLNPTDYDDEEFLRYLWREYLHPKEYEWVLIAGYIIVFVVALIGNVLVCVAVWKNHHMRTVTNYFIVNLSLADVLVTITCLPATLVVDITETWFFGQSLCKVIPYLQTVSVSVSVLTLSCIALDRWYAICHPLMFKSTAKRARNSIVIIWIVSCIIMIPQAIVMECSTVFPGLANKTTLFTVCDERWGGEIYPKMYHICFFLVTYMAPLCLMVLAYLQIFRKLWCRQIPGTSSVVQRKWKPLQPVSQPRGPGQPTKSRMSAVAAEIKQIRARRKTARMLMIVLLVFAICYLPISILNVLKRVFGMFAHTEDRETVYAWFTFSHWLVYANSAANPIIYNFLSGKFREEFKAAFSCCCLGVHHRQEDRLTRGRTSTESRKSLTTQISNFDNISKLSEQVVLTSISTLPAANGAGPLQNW
Method: as §1

Chain of OX1R (P56718 whole entry, looked up): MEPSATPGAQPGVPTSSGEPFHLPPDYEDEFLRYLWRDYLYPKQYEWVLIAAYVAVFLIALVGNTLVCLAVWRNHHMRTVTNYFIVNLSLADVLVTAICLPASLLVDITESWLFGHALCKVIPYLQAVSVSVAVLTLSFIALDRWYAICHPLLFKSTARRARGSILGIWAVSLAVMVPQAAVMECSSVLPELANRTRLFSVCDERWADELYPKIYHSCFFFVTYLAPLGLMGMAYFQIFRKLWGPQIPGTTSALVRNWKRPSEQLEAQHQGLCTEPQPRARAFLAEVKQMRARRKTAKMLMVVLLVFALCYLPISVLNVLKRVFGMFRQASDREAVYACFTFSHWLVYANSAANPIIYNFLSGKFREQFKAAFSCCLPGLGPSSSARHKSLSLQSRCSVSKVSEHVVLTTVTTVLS

Row | Structure (SMILES) | pKi (OX1R) | pKi (OX2R)
1 | C[C@@H]1CC[C@@H](COc2ccc(F)cn2)CN1C(=O)c1cc(C(=O)O)ccc1-c1ncccn1 [Compound H-4, 3-[((2R,5R)-5-{[(5-fluoropyridin-2-yl)oxy]methyl}-2-methylpiperidin-1-yl)carbonyl]-4-pyrimidin-2-ylbenzoic acid] | 7.08 | 7.43
2 | C[C@@H]1CC[C@@H](COc2ccc(F)cn2)CN1C(=O)c1cc(C(=O)O)ccc1-n1nccn1 [Compound F-4, 3-[((2R,5R)-5-{[(5-Fluoropyridin-2-yl)oxy]methyl}-2-methylpiperidin-1-yl)carbonyl]-4-(2H-1,2,3-triazol-2-yl)benzoic acid] | 6.59 | 6.39
3 | Cc1ccc(-c2ncccn2)c(C(=O)N2C[C@H](COc3ccc(F)cn3)CC[C@H]2C)c1 [Compound E-5, 2-{2-[((2R,5R)-5-{[(5-Fluoropyridin-2-yl)oxy]methyl}-2-methylpiperidin-1-yl)carbonyl]-4-methylphenyl}pyrimidine] | 8.54 | 9.51
4 | C[C@@H]1CC[C@@H](COc2ccnc(Cl)c2)CN1C(=O)c1ccccc1-n1nccn1 [Compound 1-43, 2-chloro-4-({(3R,6R)-6-methyl-1-[2-(2H-1,2,3-triazol-2-yl)benzoyl]piperidin-3-yl}methoxy)pyridine] | 6.85 | 7.66
5 | CCOc1ccccc1C(=O)N1C[C@H](COc2ccc(F)cn2)CC[C@H]1C [Compound 1-24, 2-{[(3R,6R)-1-(2-ethoxybenzoyl)-6-methylpiperidin-3-yl]methoxy}-5-fluoropyridine] | 7.44 | 8.77
6 | C[C@@H]1CC[C@@H](COc2ccc(F)cn2)CN1C(=O)c1ccccc1-n1cccn1 [Compound 1-37, 5-fluoro-2-({(3R,6R)-6-methyl-1-[2-(1H-pyrazol-1-yl)benzoyl]piperidin-3-yl}methoxy)pyridine] | 7.26 | 8.82
7 | Cc1ccc(-c2cn[nH]c2)c(C(=O)N2C[C@H](COc3ccc(F)cn3)CC[C@H]2C)c1 [Compound 1-21, 5-fluoro-2-({(3R,6R)-6-methyl-1-[5-methyl-2-(1H-pyrazol-4-yl)benzoyl]piperidin-3-yl}methoxy)pyridine] | 8.15 | 9.32
8 | C[C@@H]1CC[C@@H](COc2ccc(F)cn2)CN1C(=O)c1cc(CO)ccc1-n1nccn1 [Compound G-1, [3-[((2R,5R)-5-{[(5-Fluoropyridin-2-yl)oxy]methyl}-2-methylpiperidin-1-yl)carbonyl]-4-(2H-1,2,3-triazol-2-yl)phenyl]methanol] | 7.85 | 8.77
9 | Cc1cccc(OC[C@@H]2CC[C@@H](C)N(C(=O)c3ccccc3-n3nccn3)C2)n1 [Compound C-4, 2-Methyl-6-({(3R,6R)-6-methyl-1-[2-(2H-1,2,3-triazol-2-yl)benzoyl]piperidin-3-yl}methoxy)pyridine] | 7.66 | 9.17
10 | C[C@@H]1CC[C@@H](COc2ccc(F)cn2)CN1C(=O)c1ncccc1-c1ccccc1 [Compound 1-38, 2-[((2R,5R)-5-{[(5-fluoropyridin-2-yl)oxy]methyl}-2-methylpiperidin-1-yl)carbonyl]-3-phenylpyridine] | 7.07 | 8.72
11 | C[C@@H]1CC[C@@H](COc2ccc(F)cn2)CN1C(=O)c1ccccc1-n1nccn1 [Compound 1-4, 5-fluoro-2-({(3R,6R)-6-methyl-1-[2-(2H-1,2,3-triazol-2-yl)benzoyl]piperidin-3-yl}methoxy)pyridine] | 7.92 | 9.43
12 | C[C@@H]1CC[C@@H](COc2ccc(F)cn2)CN1C(=O)c1cc(F)ccc1-n1nccn1 [Compound 1-8, 5-fluoro-2-({(3R,6R)-1-[5-fluoro-2-(2H-1,2,3-triazol-2-yl)benzoyl]-6-methylpiperidin-3-yl}methoxy)pyridine] | 8.17 | 9.30
13 | C[C@@H]1CC[C@@H](COc2ccc(F)cn2)CN1C(=O)c1cc(CO)ccc1-c1ncccn1 [Compound I-7, {3-[((2R,5R)-5-{[(5-Fluoropyridin-2-yl)oxy]methyl}-2-methylpiperidin-1-yl)carbonyl]-4-pyrimidin-2-ylphenyl}methanol] | 7.52 | 8.70
14 | Cc1ccc(-c2cnccn2)c(C(=O)N2C[C@H](COc3ccc(F)cn3)CC[C@H]2C)c1 [Compound B-3, 2-{2-[((2R,5R)-5-{[(5-Fluoropyridin-2-yl)oxy]methyl}-2-methylpiperidin-1-yl)carbonyl]-4-methylphenyl}pyrazine] | 8.48 | 9.27
15 | C[C@@H]1CC[C@@H](COc2ccc(F)cn2)CN1C(=O)c1ccccc1-c1ncccn1 [Compound 1-28, 2-{2-[((2R,5R)-5-{[(5-fluoropyridin-2-yl)oxy]methyl}-2-methylpiperidin-1-yl)carbonyl]phenyl}pyrimidine] | 7.77 | 9.17
16 | C[C@@H]1CC[C@@H](COc2ccc(Br)nc2)CN1C(=O)c1ccccc1-n1nccn1 [Compound 1-42, 2-bromo-5-({(3R,6R)-6-mcthyl-1-[2-(2H-1,2,3-triazol-2-yl)benzoyl]piperidin-3-yl}methoxy)pyridine] | 7.19 | 8.42
17 | C[C@@H]1CC[C@@H](COc2ccc(F)cn2)CN1C(=O)c1c(F)cccc1-c1ncccn1 [Compound 1-34, 2-{3-fluoro-2-[((2R,5R)-5-{[(5-fluoropyridin-2-yl)oxy]methyl}-2-methylpiperidin-1-yl)carbonyl]phenyl}pyrimidine] | 8.09 | 9.17
18 | Cc1ccc(-n2nccn2)c(C(=O)N2C[C@H](COc3ccc(F)cn3)CC[C@H]2C)c1 [Compound A-9, 5-Fluoro-2-({(3R,6R)-6-methyl-1-[5-methyl-2-(2H-1,2,3-triazol-2-yl)benzoyl]piperidin-3-yl}methoxy)pyridine] | 9.00 | 9.62
19 | Cc1ccc(-c2ccccn2)c(C(=O)N2C[C@H](COc3ccc(F)cn3)CC[C@H]2C)c1 [Compound 1-15, 5-fluoro-2-{[(3R,6R)-6-methyl-1-(5-methyl-2-pyridin-2-ylbenzoyl)piperidin-3-yl}methoxy}pyridine] | 8.49 | 9.46
20 | Cc1ccc(-c2nccs2)c(C(=O)N2C[C@H](COc3ccc(F)cn3)CC[C@H]2C)c1 [Compound 1-1, 5-fluoro-2-({(3R,6R)-6-methyl-1-[5-methyl-2-(1,3-thiazol-2-yl)benzoyl]piperidin 3-yl}methoxy)pyridine] | 8.74 | 9.62
21 | Cc1ccc(-n2nccn2)c(C(=O)N2CCCC(COc3ccc(F)nc3)C2)c1 (stereo not drawn) [Compound 2-1] | 7.02 | 7.54
22 | C[C@@H]1CC[C@@H](COc2ccc(F)cn2)CN1C(=O)c1cc(F)ccc1-c1ncccn1 [Compound 1-19, 2-{4-fluoro-2-[((2R,5R)-5-{[(5-fluoropyridin-2-yl)oxy]methyl}-2-methylpiperidin-1-yl)carbonyl]phenyl}pyrimidine] | 8.00 | 9.28
23 | Cc1ccc(-c2ccccc2)c(C(=O)N2C[C@H](COc3ccc(F)cn3)CC[C@H]2C)c1 [Compound 1-10, 5-fluoro-2-({(3R,6R)-6-methyl-1-[(4-methylbiphenyl-2-yl)carbonyl]piperidin-3-yl}methoxy)pyridine] | 9.15 | 10.10
24 | C[C@@H]1CC[C@@H](COc2ccc(F)cn2)CN1C(=O)c1cccc2cc[nH]c12 [Compound 1-27, 7-[((2R,5R)-5-{[(5-fluoropyridin-2-yl)oxy]methyl}-2-methylpiperidin-1-yl)carbonyl]-1H-indole] | 7.12 | 8.00
